Source: patent US10947188B2, “Small molecule ferroptosis inducers” (THE TRUSTEES OF COLUMBIA UNIVERSITY IN THE CITY OF NEW YORK, priority 2016, dated 2021)

Key:
[1] = tested on: HT-1080; assay: Modulatory profiling: Alamar Blue viability, lethal compound cotreated with death modulator (EC50, AUC); assay type: cell-based; parameters: AUC, modulator HT.3MA / AUC, modulator HT.ALLN / AUC HT.ATA / AUC HT.ActD / AUC HT.BHA / AUC HT.BHT / AUC HT.BocD / AUC HT.CHX / AUC HT.Co2+ / AUC HT.DPQ / AUC HT.EGTA / AUC HT.Lmim / AUC HT.NAD+ / AUC HT.Nec-1 / AUC HT.SP600125 / AUC HT.TLCK / AUC HT.U0126: unit not given beside the values; conditions: for AUC HT.ATA: HT-1080, modulator ATA; for AUC HT.ActD: HT-1080, modulator ActD; for AUC HT.BHA: HT-1080, modulator BHA; for AUC HT.BHT: HT-1080, modulator BHT; for AUC HT.BocD: HT-1080, modulator BocD; for AUC HT.CHX: HT-1080, modulator CHX; for AUC HT.Co2+: HT-1080, modulator Co2+; for AUC HT.CspA: HT-1080, modulator CspA; for AUC HT.DPQ: HT-1080, modulator DPQ; for AUC HT.EGTA: HT-1080, modulator EGTA; for AUC HT.Gd3+: HT-1080, modulator Gd3+; for AUC HT.LNAME: HT-1080, modulator LNAME; for AUC HT.Lmim: HT-1080, modulator Lmim; for AUC HT.NAD+: HT-1080, modulator NAD+; for AUC HT.NMMA: HT-1080, modulator NMMA; for HT.atoc (AUC) / HT.bCarotene (AUC) / HT.deferox (AUC) / HT.digoxin (AUC) / HT.trolox (AUC) / HT.zVAD (AUC): HT-1080; for HT.atoc (AUC): modulator atoc; for HT.bCarotene (AUC): modulator bCarotene; for HT.deferox (AUC): modulator deferox; for HT.digoxin (AUC): modulator digoxin; for HT.trolox (AUC): modulator trolox; for HT.zVAD (AUC): modulator zVAD; as to AUC HT.BHA: reference of the scale not given here; as to AUC HT.EGTA: reference of the scale not given here
[2] = tested on: BJeLR; assay: as above; assay type: cell-based, human; parameters: AUC, modulator BJ.Gd3+ / AUC, modulator BJ.LNAME / AUC, modulator BJ.Lmin / AUC, modulator BJ.3MA / AUC, modulator BJ.ALLN / AUC, modulator BJ.Boc D / AUC, modulator BJ.CHX / AUC, modulator BJ.Co2+ / AUC, modulator BJ.Nec-1 / AUC, modulator BJ.Pepstatin / AUC, modulator BJ.TLCK / AUC, modulator BJ.atoc / AUC, modulator BJ.trolox / AUC, modulator BJ.zVAD: unit not given beside the values; conditions: BJeLR cells, modulatory profile value (AUC); for AUC, modulator BJ.3MA: lethal compound cotreated with modulator 3MA; for AUC, modulator BJ.ALLN: lethal compound cotreated with modulator ALLN; for AUC, modulator BJ.Boc D: lethal compound cotreated with modulator Boc D; for AUC, modulator BJ.CHX: lethal compound cotreated with modulator CHX; for AUC, modulator BJ.Co2+: lethal compound cotreated with modulator Co2+; for AUC, modulator BJ.DPQ: lethal compound cotreated with modulator DPQ; for AUC, modulator BJ.Gd3+: lethal compound cotreated with modulator Gd3+; for AUC, modulator BJ.LNAME: lethal compound cotreated with modulator LNAME; for AUC, modulator BJ.Lmin/NAD+: lethal compound cotreated with modulator Lmin/NAD+; for AUC, modulator BJ.Lmin: lethal compound cotreated with modulator Lmin; for AUC, modulator BJ.NAD+: lethal compound cotreated with modulator NAD+; for AUC, modulator BJ.NMMA: lethal compound cotreated with modulator NMMA; for AUC, modulator BJ.Nec-1: lethal compound cotreated with modulator Nec-1; for AUC, modulator BJ.Pepstatin: lethal compound cotreated with modulator Pepstatin; for AUC, modulator BJ.TLCK: lethal compound cotreated with modulator TLCK; as to AUC, modulator BJ.3MA: reference of the scale not given here; as to AUC, modulator BJ.ALLN: reference of the scale not given here; as to AUC, modulator BJ.Boc D: reference of the scale not given here; as to AUC, modulator BJ.CHX: reference of the scale not given here; as to AUC, modulator BJ.Co2+: reference of the scale not given here; as to AUC, modulator BJ.DPQ: reference of the scale not given here; as to AUC, modulator BJ.Gd3+: reference of the scale not given here; as to AUC, modulator BJ.LNAME: reference of the scale not given here; as to AUC, modulator BJ.NAD+: reference of the scale not given here; as to AUC, modulator BJ.NMMA: reference of the scale not given here; as to AUC, modulator BJ.Nec-1: reference of the scale not given here; as to AUC, modulator BJ.Pepstatin: reference of the scale not given here; as to AUC, modulator BJ.TLCK: reference of the scale not given here

CC1(C)CC(=O)C2=C(C1)OC1=C(C(=O)CC(C)(C)C1)C2c1ccc(O)cc1O [CIL62]
effect of necrostatin-1 on lethality ([1]; 19 μM Nec-1): suppressed by necrostatin-1 | AUC HT.ATA [1]: 0.02941 | AUC HT.ActD [1]: −0.01143 | AUC HT.BHA [1]: −0.007393 | AUC HT.BHT [1]: −0.1437 | AUC HT.BocD [1]: 0.002455 | AUC HT.CHX [1]: 0.08707 | AUC HT.Co2+ [1]: 0.03422 | AUC HT.CspA [1]: −0.001347 | AUC HT.DPQ [1]: 0.01017 | AUC HT.EGTA [1]: 0.04611 | AUC HT.Gd3+ [1]: −0.02573 | AUC HT.LNAME [1]: −0.003569 | AUC HT.Lmim [1]: 0.008056 | AUC HT.NAD+ [1]: −0.01689 | AUC HT.NMMA [1]: −0.01754 | HT.atoc (AUC) [1]: 0.08235 | HT.bCarotene (AUC) [1]: 0.02726 | HT.deferox (AUC) [1]: 0.1061 | HT.digoxin (AUC) [1]: −0.02448 | HT.trolox (AUC) [1]: −0.03123 | HT.zVAD (AUC) [1]: −0.01794 | AUC, modulator BJ.3MA [2]: 0.009762 | AUC, modulator BJ.ALLN [2]: −0.06265 | AUC, modulator BJ.Boc D [2]: −0.008658 | AUC, modulator BJ.CHX [2]: 0.5162 | AUC, modulator BJ.Co2+ [2]: 0.01574 | AUC, modulator BJ.DPQ [2]: −0.005752 | AUC, modulator BJ.Gd3+ [2]: 0.002946 | AUC, modulator BJ.LNAME [2]: −0.02055 | AUC, modulator BJ.Lmin/NAD+ [2]: 0.08736 | AUC, modulator BJ.Lmin [2]: 0.01862 | AUC, modulator BJ.NAD+ [2]: 0.04149 | AUC, modulator BJ.NMMA [2]: −0.05556 | AUC, modulator BJ.Nec-1 [2]: 0.1929 | AUC, modulator BJ.Pepstatin [2]: 0.06831 | AUC, modulator BJ.TLCK [2]: −0.03175

O=c1c(Cl)c(Cl)cnn1-c1ccc(Cl)cc1 [CIL63]
AUC HT.ATA [1]: 0.07925 | AUC HT.ActD [1]: −0.003254 | AUC HT.BHA [1]: 0.01784 | AUC HT.BHT [1]: −0.1088 | AUC HT.BocD [1]: 0.01855 | AUC HT.CHX [1]: 0.07744 | AUC HT.Co2+ [1]: 0.02639 | AUC HT.CspA [1]: 0.003063 | AUC HT.DPQ [1]: −0.02172 | AUC HT.EGTA [1]: 0.06222 | AUC HT.Gd3+ [1]: −0.03164 | AUC HT.LNAME [1]: 0.04201 | AUC HT.Lmim [1]: 0.03962 | AUC HT.NAD+ [1]: 0.03316 | AUC HT.NMMA [1]: −0.002298 | HT.atoc (AUC) [1]: 0.07269 | HT.bCarotene (AUC) [1]: 0.0644 | HT.deferox (AUC) [1]: 0.08989 | HT.digoxin (AUC) [1]: 0.02371 | HT.trolox (AUC) [1]: 0.03222 | HT.zVAD (AUC) [1]: 0.01846 | AUC, modulator BJ.3MA [2]: 0.04075 | AUC, modulator BJ.ALLN [2]: 0.0544 | AUC, modulator BJ.Boc D [2]: −0.01053 | AUC, modulator BJ.CHX [2]: 0.09508 | AUC, modulator BJ.Co2+ [2]: 0.02177 | AUC, modulator BJ.DPQ [2]: 0.0003046 | AUC, modulator BJ.Gd3+ [2]: 0.01459 | AUC, modulator BJ.LNAME [2]: −0.006812 | AUC, modulator BJ.Lmin/NAD+ [2]: 0.07776 | AUC, modulator BJ.Lmin [2]: 0.01215 | AUC, modulator BJ.NAD+ [2]: 0.02352 | AUC, modulator BJ.NMMA [2]: 0.002719 | AUC, modulator BJ.Nec-1 [2]: 0.02815 | AUC, modulator BJ.Pepstatin [2]: 0.02882 | AUC, modulator BJ.TLCK [2]: −0.0437

[O-][N+]1=c2ccc(Nc3ccccc3)cc2=NC12CCCCC2 [CIL66]
AUC HT.ATA [1]: 0.02652 | AUC HT.ActD [1]: −0.03277 | AUC HT.BHA [1]: −0.02085 | AUC HT.BHT [1]: −0.1542 | AUC HT.BocD [1]: −0.05788 | AUC HT.CHX [1]: 0.08144 | AUC HT.Co2+ [1]: −0.06034 | AUC HT.CspA [1]: −0.05469 | AUC HT.DPQ [1]: −0.01105 | AUC HT.EGTA [1]: 0.03093 | AUC HT.Gd3+ [1]: −0.01757 | AUC HT.LNAME [1]: 0.004035 | AUC HT.Lmim [1]: 0.01652 | AUC HT.NAD+ [1]: −0.01106 | AUC HT.NMMA [1]: −0.01421 | HT.atoc (AUC) [1]: 0.05045 | HT.bCarotene (AUC) [1]: 0.03186 | HT.deferox (AUC) [1]: 0.1299 | HT.digoxin (AUC) [1]: −0.05456 | HT.trolox (AUC) [1]: −0.03334 | HT.zVAD (AUC) [1]: 0.01629 | AUC, modulator BJ.3MA [2]: 0.04168 | AUC, modulator BJ.ALLN [2]: 0.08747 | AUC, modulator BJ.Boc D [2]: −0.03146 | AUC, modulator BJ.CHX [2]: 0.08369 | AUC, modulator BJ.Co2+ [2]: −0.03141 | AUC, modulator BJ.DPQ [2]: −0.007284 | AUC, modulator BJ.Gd3+ [2]: −0.003838 | AUC, modulator BJ.LNAME [2]: 0.02705 | AUC, modulator BJ.Lmin/NAD+ [2]: 0.06444 | AUC, modulator BJ.Lmin [2]: −0.05195 | AUC, modulator BJ.NAD+ [2]: −0.0264 | AUC, modulator BJ.NMMA [2]: −0.02558 | AUC, modulator BJ.Nec-1 [2]: 0.03694 | AUC, modulator BJ.Pepstatin [2]: 0.04469 | AUC, modulator BJ.TLCK [2]: −0.07935
